What was measured:
Assay type in all cases: in vivo
[1] = tested on: tomato; experiment: Example 8 temperature stress test (tomato), soil culture; conditions: leaf, 100 ppm, 2 weeks; for Fresh weight, relative value (untreated plot = 100), Comparison 1: stress-free: tomato soil culture, cultivation temperature 23, EC 1, pF 1.7, two-leaf stage; for Fresh weight, relative value (untreated plot = 100), Test 1 / Fresh weight, relative value (untreated plot = 100), Test 2 / Fresh weight, relative value (untreated plot = 100), Test 3 / Fresh weight, relative value (untreated plot = 100), Test 4: tomato soil culture; for Fresh weight, relative value (untreated plot = 100), Test 1: cultivation temperature 10, EC 1, pF 1.7, two-leaf stage; for Fresh weight, relative value (untreated plot = 100), Test 2: cultivation temperature 16, EC 1, pF 1.7, two-leaf stage; for Fresh weight, relative value (untreated plot = 100), Test 3: cultivation temperature 29, EC 1, pF 1.7, two-leaf stage; for Fresh weight, relative value (untreated plot = 100), Test 4: cultivation temperature 35, EC 1, pF 1.7, two-leaf stage
Protocol: (§1) Other Conditions were as in Example 5. The environmental conditions in a climatic chamber were controlled so as to have an illuminance by a fluorescent light of 5000 Lux, a daily light-dark cycle of a 16-hour light period and an 8-hour dark period, and various temperatures. Tomatoes as prepared above were transplanted in size-3 (9 cm) pots. A treatment solution containing a compound of Table 1 in a specific concentration (the remainder was water) was prepared and sprayed onto the leaves or applied to the underground portions. […] A comparative example was constructed to reflect the temperature stress-free optimum cultivation conditions to investigate the plant energizing ability. […] Moreover, when the products of the present invention and the comparative products were compared, the stress tolerance imparting ability of the products of the present invention was higher in respective temperature stress conditions.

[2] = tested on: tomato; experiment: Example 7 drying stress test (tomato), soil culture; conditions: 23° C., leaf, 100 ppm, 2 weeks; for Fresh weight, relative value (untreated plot = 100), Comparison 1: stress-free: tomato soil culture, EC 1, pF 1.7, two-leaf stage; for Fresh weight, relative value (untreated plot = 100), Test 1 / Fresh weight, relative value (untreated plot = 100), Test 4 / Fresh weight, relative value (untreated plot = 100), Test 2 / Fresh weight, relative value (untreated plot = 100), Test 3: tomato soil culture; for Fresh weight, relative value (untreated plot = 100), Test 1: EC 1, pF 2.8, two-leaf stage; for Fresh weight, relative value (untreated plot = 100), Test 4: EC 1, pF 3.5, five-leaf stage; for Fresh weight, relative value (untreated plot = 100), Test 2: EC 1, pF 3.5, two-leaf stage; for Fresh weight, relative value (untreated plot = 100), Test 3: EC 1, pF 4.1, two-leaf stage
Protocol: as §1, with “The” for “Other Conditions were as in Example 5. The”, “have a temperature of 23° C.,” for “have”, “Lux, and” for “Lux,”, “period.” for “period, and various temperatures.”, “pots. During the test period, the pF value was controlled by adding a suitable amount of tap water once a day so as to attain a specific drying stress value.” for “pots.”, “drying” for “temperature”

[3] = tested on: “Momotaro” tomato; experiment: Example 6 salt stress test (tomato), soil culture; conditions: 23° C., leaf, 100 ppm, 2 weeks; for Fresh weight, relative value (untreated plot = 100), Test 1 / Fresh weight, relative value (untreated plot = 100), Test 4 / Fresh weight, relative value (untreated plot = 100), Test 2 / Fresh weight, relative value (untreated plot = 100), Test 3: soil culture; for Fresh weight, relative value (untreated plot = 100), Test 1: EC 1.3 mS/cm; for Fresh weight, relative value (untreated plot = 100), Test 1 / Fresh weight, relative value (untreated plot = 100), Test 2 / Fresh weight, relative value (untreated plot = 100), Test 3 / Fresh weight, relative value (untreated plot = 100), Comparison 1: pF 1.7, two-leaf stage; for Fresh weight, relative value (untreated plot = 100), Test 4 / Fresh weight, relative value (untreated plot = 100), Test 2: EC 2 mS/cm; for Fresh weight, relative value (untreated plot = 100), Test 4: pF 1.7, five-leaf stage; for Fresh weight, relative value (untreated plot = 100), Test 3: EC 3 mS/cm; for Fresh weight, relative value (untreated plot = 100), Comparison 1: stress-free: soil culture, EC 1 mS/cm
Protocol: (1) A. soil culture (a) Comparative example conditions (stress-free optimum growth conditions) Cultivation temperature: 23° C., EC: 1.0 mS/cm (cultivation with Kureha gardening soil), pF value: 1.7 (capillaries in a saturated state) (b) Example conditions (salt stress conditions) Cultivation temperature: 23° C., EC: 1.3, 2.0, 3.0 mS/cm (cultivation with Kureha gardening soil), pF value: 1.7 (capillaries in a saturated state)
(a) Comparative example conditions (stress-free optimum growth conditions) Cultivation temperature: 23° C., EC: 1.3 mS/cm (Otsuka ½A formulation) (b) Example conditions (salt stress conditions) Cultivation temperature: 23° C., EC: 2.7, 3.9, 4.8 mS/cm (cultivation with Kureha gardening soil) (2) Illuminance: 5000 Lux (fluorescent light), light/dark cycle: 16 hours/8 hours (3) Employed soil: Kureha gardening soil manufactured by Kureha Corporation (fertilizer components: N:P:K=0.4:1.9:0.6 g/kg soil) (4) Employed solution culture medium: Otsuka ½A formulation: a mixed solution of Otsuka House No. 1 (N:P:K=10:8:27) 7.5 g/10 L and Otsuka House No. 2 (N:P:K:Ca=10:0:0:23) 5 g/10 L, total nitrogen: 130 ppm, phosphoric acid: 60 ppm, potassium: 203 ppm) (5) Cultivation period: 2 weeks (6) Plant preparation: A 50-cell tray was filled with Kureha gardening soil manufactured by Kureha Corporation (fertilizer components: N:P:K=0.4:1.9:0.6 g/kg soil), and seeds of a “Momotaro” tomato or tubers of a “Danshaku” potato were sowed, thinly covered with Kureha gardening soil, and sufficiently watered to allow the seeds or the tubers to sprout. When the leaves in the 2-leaf stage or the 5-leaf stage fully unfolded, the soil on the tomato roots or the potato roots was carefully washed away with running water, and a test was performed. (7) Test chemicals: POE (20) sorbitan monolauric acid ester: Reodol TW-L120 (Kao Corporation) POE (20) sorbitan monopalmitic acid ester: Reodol TW-P120 (Kao Corporation) POE (20) sorbitan monostearic acid ester: Reodol TW-S120 (Kao Corporation) POE (20) sorbitan monooleic acid ester: Reodol TW-O120 (Kao Corporation) Sorbitan monooleic acid ester: Emasol 0-10(F) (Kao Corporation) POE (6) sorbitan monooleic acid ester: Reodol TW-O106 (Kao Corporation) Alkyl (number of carbon atoms: 10) polyglucoside: AG-10LK (Kao Corporation) Alkyl (number of carbon atoms: 12 to 14) polyglucoside: AG-124 (Kao Corporation) Sucrose fatty acid ester (number of carbon atoms: C18, HLB: 5): S-570 (Mitsubishi-Kagaku Foods Corporation) Sucrose fatty acid ester (number of carbon atoms: C18, HLB: 9): S-970 (Mitsubishi-Kagaku Foods Corporation) Sucrose fatty acid ester (number of carbon atoms: C18, HLB: 11): S-1170 (Mitsubishi-Kagaku Foods Corporation) Sucrose fatty acid ester (number of carbon atoms: C18, HLB: 15): 5-1570 (Mitsubishi-Kagaku Foods Corporation) Sucrose fatty acid ester (number of carbon atoms: C16, HLB: 15): P-1570 (Mitsubishi-Kagaku Foods Corporation) Sucrose fatty acid ester (number of carbon atoms: C18:1, HLB: 15): O-1570 (Mitsubishi-Kagaku Foods Corporation) (8) Amount of treatment solution applied: 10 ml/specimen for leaf spraying, 250 ml/specimen for hydroponic culture (treatment of underground portion) (9) 50 ml/specimen for soil culture (treatment of underground portion)
The environmental conditions in a climatic chamber were controlled so as to have a temperature of 23° C., an illuminance by a fluorescent light of 5000 Lux, and a daily light-dark cycle of a 16-hour light period and an 8-hour dark period. Tomatoes as prepared above were transplanted in size-3 (9 cm) pots. During the test period, the EC value was controlled by adding a suitable amount of a 10% NaCl solution once a day so as to attain a specific salt stress value. A treatment solution containing a compound of Table 1 in a specific concentration (the remainder was water) was prepared and sprayed onto the leaves or applied to the underground portions. […]

For “POE (20) sorbitan monolauric acid ester [Product of present invention 12]”, the “Fresh weight, relative value (untreated plot = 100), Comparison 1” value (shortened to “Fresh weight, relative value … Comparison 1”) [1] was 102, the “Fresh weight, relative value (untreated plot = 100), Test 1” value (shortened to “Fresh weight, relative value … Test 1”) [1] was 124 and the “Fresh weight, relative value (untreated plot = 100), Test 2” value (from here on “Fresh weight, relative value … Test 2”) [1] was 126. The “Fresh weight, relative value (untreated plot = 100), Test 3” value (“Fresh weight, relative value … Test 3” for short) [1] was 144, the “Fresh weight, relative value (untreated plot = 100), Test 4” value (“Fresh weight, relative value … Test 4” for short) [1] was 132 and the “Fresh weight, relative value … Comparison 1” value [2] was 101. The “Fresh weight, relative value … Test 1” value [2] was 130, the “Fresh weight, relative value … Test 4” value [2] was 148 and the “Fresh weight, relative value … Test 2” value [2] was 162. The “Fresh weight, relative value … Test 3” value [2] was 135, the “Fresh weight, relative value … Test 1” value [3] was 131 and the “Fresh weight, relative value … Test 4” value [3] was 146. The “Fresh weight, relative value … Test 2” value [3] was 155, the “Fresh weight, relative value … Test 3” value [3] was 133 and the “Fresh weight, relative value … Comparison 1” value [3] was 101.
In the case of “Sucrose fatty acid ester (C18, HLB = 15) [Product of present invention 20]”, the “Fresh weight, relative value … Comparison 1” value [1] is reported as 102, the “Fresh weight, relative value … Test 1” value [1] is reported as 114 and the “Fresh weight, relative value … Test 2” value [1] is reported as 116. For the same compound, the “Fresh weight, relative value … Test 3” value [1] was 133, the “Fresh weight, relative value … Test 4” value [1] was 122 and the “Fresh weight, relative value … Comparison 1” value [2] was 103. The “Fresh weight, relative value … Test 1” value [2] was 119, the “Fresh weight, relative value … Test 4” value [2] was 136 and the “Fresh weight, relative value … Test 2” value [2] was 139. The “Fresh weight, relative value … Test 3” value [2] was 124, the “Fresh weight, relative value … Test 1” value [3] was 120 and the “Fresh weight, relative value … Test 4” value [3] was 129. For the same compound, the “Fresh weight, relative value … Test 2” value [3] was 134 and the “Fresh weight, relative value … Test 3” value [3] was 119.
`C[N+](C)(C)CC(=O)[O-]` [Comparative product 3, Glycine betaine, reference compound] was tested, and the “Fresh weight, relative value … Comparison 1” value [1] was 102, the “Fresh weight, relative value … Test 1” value [1] was 100 and the “Fresh weight, relative value … Test 2” value [1] was 100. For the same compound, the “Fresh weight, relative value … Test 3” value [1] was 101, the “Fresh weight, relative value … Test 4” value [1] was 101 and the “Fresh weight, relative value … Comparison 1” value [2] was 102. For the same compound, the “Fresh weight, relative value … Test 1” value [2] was 102, the “Fresh weight, relative value … Test 4” value [2] was 101 and the “Fresh weight, relative value … Test 2” value [2] was 103. For the same compound, the “Fresh weight, relative value … Test 3” value [2] was 103, the “Fresh weight, relative value … Test 1” value [3] was 103 and the “Fresh weight, relative value … Test 4” value [3] was 101. The “Fresh weight, relative value … Test 2” value [3] was 103, the “Fresh weight, relative value … Test 3” value [3] was 103 and the “Fresh weight, relative value … Comparison 1” value [3] was 102.
In the case of `OC[C@H]1O[C@H](OC[C@H]2O[C@H](O[C@]3(CO)O[C@H](CO)[C@@H](O)[C@@H]3O)[C@H](O)[C@@H](O)[C@@H]2O)[C@H](O)[C@@H](O)[C@H]1O` [Comparative product 4, Raffinose, reference compound], the “Fresh weight, relative value … Comparison 1” value [1] is reported as 102, the “Fresh weight, relative value … Test 1” value [1] is reported as 100 and the “Fresh weight, relative value … Test 2” value [1] is reported as 100. The “Fresh weight, relative value … Test 3” value [1] was 101, the “Fresh weight, relative value … Test 4” value [1] was 101 and the “Fresh weight, relative value … Comparison 1” value [2] was 102. For the same compound, the “Fresh weight, relative value … Test 1” value [2] was 103, the “Fresh weight, relative value … Test 4” value [2] was 101 and the “Fresh weight, relative value … Test 2” value [2] was 103. For the same compound, the “Fresh weight, relative value … Test 3” value [2] was 103.
With “Alkyl (C10) polyglycoside [Product of present invention 15]” the “Fresh weight, relative value … Comparison 1” value [1] was 102, the “Fresh weight, relative value … Test 1” value [1] was 116 and the “Fresh weight, relative value … Test 2” value [1] was 119. The “Fresh weight, relative value … Test 3” value [1] was 136, the “Fresh weight, relative value … Test 4” value [1] was 126 and the “Fresh weight, relative value … Comparison 1” value [2] was 101. The “Fresh weight, relative value … Test 1” value [2] was 121, the “Fresh weight, relative value … Test 4” value [2] was 139 and the “Fresh weight, relative value … Test 2” value [2] was 147. For the same compound, the “Fresh weight, relative value … Test 3” value [2] was 126, the “Fresh weight, relative value … Test 1” value [3] was 121 and the “Fresh weight, relative value … Test 4” value [3] was 134. The “Fresh weight, relative value … Test 2” value [3] was 142, the “Fresh weight, relative value … Test 3” value [3] was 121 and the “Fresh weight, relative value … Comparison 1” value [3] was 101.
